Measured values as given in ChEMBL document CHEMBL1121629, “1-(Aminoalkyl)-6-aryl-4-H-s-triazolo[4,3-a][1,4]benzodiazepines with antianxiety and antidepressant activity” (1980).

What was measured:
Assay type in all cases: functional
Mus musculus [1] = species: Mus musculus; test: Tested for antagonism of nicotine-induced death (D) in mice
Mus musculus [2] = species: Mus musculus; test: Tested for stereotyped gnawing and licking behavior of mice pretreated with apomorphine (AG)
Mus musculus [3] = species: Mus musculus; test: Tested for potentiation of gamma-butyrolactone induced sleep (gamma-B) in mice
Mus musculus [4] = species: Mus musculus; test: Tested for antagonism of oxotremorine hypothermia (OX) in mice
Mus musculus [5] = species: Mus musculus; test: Prolongation of hypoxic survival time (HS) in mice
Mus musculus [6] = species: Mus musculus; test: Tested for antagonism of pentylenetetrazole-induced clonic convulsions (P) in mice
Mus musculus [7] = species: Mus musculus; test: Tested for antagonism of nicotine-induced tonic extensor convulsions (TE) in mice
Mus musculus [8] = species: Mus musculus; test: Tested for potentiation of yohimbine toxicity in aggregated mice(Y)
Mus musculus [9] = species: Mus musculus; test: Tested for antagonism of bicuculline-induced tonic-extensor convulsions (B) in mice

Row | SMILES | ED50 (Mus musculus [1]) [mg/kg] | ED50 (Mus musculus [2]) [mg/kg] | ED50 (Mus musculus [3]) [mg/kg] | ED50 (Mus musculus [4]) [mg/kg] | ED50 (Mus musculus [5]) [mg/kg] | ED50 (Mus musculus [6]) [mg/kg] | ED50 (Mus musculus [7]) [mg/kg] | ED50 (Mus musculus [8]) [mg/kg] | ED50 (Mus musculus [9]) [mg/kg]
1 | Clc1ccc2c(c1)C(c1ccccc1)=NCc1nnc(CNCC3CC3)n1-2 | 0.2 | > 50 | 1.3 | > 50 | 1 | 3.1 | 0.2 | 50 | 1.9
2 | CN(Cc1nnc2n1-c1ccc(Cl)cc1C(c1ccccc1)=NC2)CC1CC1 | 0.6 | > 50 | 1.1 | > 50 | 30 | 3.1 | 0.4 | > 50 | 2.6
3 | NCCc1nnc2n1-c1ccc(Cl)cc1C(c1ccccc1Cl)=NC2 | 4.5 | 14.9 | 21 | 29.7 | > 50 | 21 | 4.5 | > 50 | 25
4 | NCc1nnc2n1-c1ccc(Cl)cc1C(c1ccccc1)=NC2 | 0.28 | 2.6 | 0.8 | 29.7 | 0.8 | 0.35 | 0.22 | 35.4 | 14.9
5 | Clc1ccc2c(c1)C(c1ccccc1)=NCc1nnc(CNC3CC3)n1-2 | 0.28 | > 50 | 1.1 | > 50 | 40 | 3.1 | 0.25 | > 50 | 1.6
6 | Clc1ccc2c(c1)C(c1ccccc1)=NCc1nnc(CN3CCCC3)n1-2 | 4.5 | 14.9 | 7.4 | 56 | 2 | 17.7 | 3.6 | 100 | 12.5
7 | C#CCNCc1nnc2n1-c1ccc(Cl)cc1C(c1ccccc1)=NC2 | 1.4 | > 50 | 0.7 | > 50 | 30 | 3.1 | 1.4 | 21 | 1.6
8 | CC(c1nnc2n1-c1ccc(Cl)cc1C(c1ccccc1)=NC2)N(C)C (stereo not drawn) | 5 | 21 | 17.7 | 10.5 | > 50 | 17.7 | 5 | 17.7 | 12.5
9 | CCN(CC)OCc1nnc2n1-c1ccc(Cl)cc1C(c1ccccc1)=NC2 | 0.5 | > 50 | 0.2 | 5.3 | 6.3 | 1.1 | 0.56 | > 50 | 1.1
10 | CN(C)Cc1nnc2n1-c1ccc(Br)cc1C(c1ccccn1)=NC2 | 1 | > 50 | 1.3 | 12.5 | 30 | 1.9 | 1 | 29.7 | 1.3
11 | CNCc1nnc2n1-c1ccc(Cl)cc1C(c1ccccc1)=NC2 | 0.18 | 12.5 | 0.1 | 3.7 | 40 | 0.4 | 0.16 | > 50 | 0.5
12 | CN1C(=O)CN=C(c2ccccc2)c2cc(Cl)ccc21 [DIAZEPAM] | 0.28 | > 50 | 0.035 | > 50 | 0.2 | 0.1 | 0.28 | > 50 | 2.6
